From PubChem BioAssay (NCI) come the findings set out here.

Test systems include CCRF-CEM leukemia; DU-145 prostate; HCC-2998 colon; HOP-92 NSCLC; IGROV1 ovarian; KM12 colon; LOX IMVI melanoma; MDA-MB-435; MOLT-4 leukemia; NCI/ADR-RES ovarian; PC-3 prostate; SK-MEL-2 melanoma; SK-MEL-28 melanoma; SR leukemia; TK-10 renal; NCI-H522 lung.
Holding throughout (assay): NCI-60 cell line screen, 48 h

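These data come from cells grown in 96-well plates and exposed to compound for 48 hours at five concentrations. TGI denotes the concentration required for complete inhibition of growth.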

As to `CC(C)=CCC[C@@H](C)C1=C(O)C(Nc2ccccc2I)=C(C)C(=O)C1=O`, the TGI with CCRF-CEM leukemia is more than 20.9 µM; with DU-145 prostate it was 69.2 µM; in the assay with HCC-2998 colon, 56.7 µM; in the assay with HOP-92 NSCLC, 50.2 µM; in the assay on IGROV1 ovarian it was 17.9 µM; with KM12 colon, 19.7 µM. In addition, the TGI is more than 75 µM in the assay with LOX IMVI melanoma; more than 75 µM in the assay with MDA-MB-435; more than 19.5 µM in the assay with MOLT-4 leukemia; more than 17.6 µM in the assay with NCI/ADR-RES ovarian; more than 51.8 µM in the assay with PC-3 prostate; 29.4 µM in the assay with SK-MEL-2 melanoma. The TGI in the assay on SK-MEL-28 melanoma was more than 75 µM; in the assay on SR leukemia, 21.4 µM; in the assay with TK-10 renal, more than 75 µM.
Take `C[C@H](C1CC2(C)OC2(C)C(=O)O1)[C@H]1CC[C@H]2[C@@H]3[C@@H]4O[C@@H]4[C@@]4(O)CC=CC(=O)[C@]4(C)[C@H]3CC[C@]12C` (stereo not given in full): the TGI in the assay with DU-145 prostate, in the assay with HCC-2998 colon, in the assay with HOP-92 NSCLC, with IGROV1 ovarian, with KM12 colon and in the assay with LOX IMVI melanoma was more than 50 µM in each case. The TGI in the assay on MDA-MB-435, in the assay with MOLT-4 leukemia, with NCI-H522 lung, in the assay on NCI/ADR-RES ovarian, with PC-3 prostate and in the assay with SK-MEL-2 melanoma was more than 50 µM in each case. Also, the TGI with SK-MEL-28 melanoma and in the assay on TK-10 renal was more than 50 µM in each case.
As to `CC1(C)Oc2ccc3c(=O)cc(-c4ccccc4)oc3c2C1C(=O)O` (stereo not given), the TGI with CCRF-CEM leukemia, in the assay with DU-145 prostate, in the assay with HCC-2998 colon, in the assay on IGROV1 ovarian, in the assay on MDA-MB-435 and with MOLT-4 leukemia was more than 100 µM throughout. In addition, the TGI in the assay on NCI-H522 lung, in the assay with NCI/ADR-RES ovarian, in the assay on PC-3 prostate, in the assay with SK-MEL-2 melanoma, in the assay on SR leukemia and in the assay on TK-10 renal was more than 100 µM throughout.
`Cn1c(=O)sc2cc(C(=S)N3CCCCC3)ccc21`: the TGI was 43 µM in the assay with CCRF-CEM leukemia; more than 100 µM with DU-145 prostate; more than 100 µM in the assay on IGROV1 ovarian; more than 100 µM with KM12 colon; more than 100 µM in the assay with LOX IMVI melanoma; more than 100 µM in the assay on MDA-MB-435. For the same compound, the TGI in the assay on MOLT-4 leukemia, in the assay on NCI/ADR-RES ovarian, in the assay on PC-3 prostate, with SK-MEL-2 melanoma, with SK-MEL-28 melanoma and in the assay on SR leukemia was more than 100 µM in each case. The compound also came in with a TGI with TK-10 renal of more than 100 µM.
Consider `NC(=S)NC/C=C/Cl`, for which the TGI with CCRF-CEM leukemia, with DU-145 prostate, in the assay with HOP-92 NSCLC, in the assay on IGROV1 ovarian, in the assay with KM12 colon and with LOX IMVI melanoma was more than 100 µM throughout. For the same compound, the TGI in the assay on MDA-MB-435, in the assay on MOLT-4 leukemia, in the assay with NCI-H522 lung, in the assay with NCI/ADR-RES ovarian, in the assay on PC-3 prostate and in the assay with SK-MEL-2 melanoma was more than 100 µM throughout. Besides, the TGI with SR leukemia and with TK-10 renal was more than 100 µM in each case.
Take `Oc1ccc(-c2nc3ccccc3s2)cc1`: the TGI was more than 100 µM in the assay on CCRF-CEM leukemia; more than 100 µM in the assay with DU-145 prostate; more than 100 µM with HOP-92 NSCLC; more than 100 µM with IGROV1 ovarian; 38.8 µM in the assay with KM12 colon; 45 µM with LOX IMVI melanoma. The TGI in the assay with MDA-MB-435 is more than 100 µM; in the assay with MOLT-4 leukemia, more than 100 µM; in the assay with NCI-H522 lung it was 47.9 µM; in the assay on NCI/ADR-RES ovarian, more than 100 µM; in the assay on PC-3 prostate, more than 100 µM; with SK-MEL-2 melanoma, 67.3 µM. For the same compound, the results for the TGI in the assay on SK-MEL-28 melanoma and with SR leukemia were more than 100 µM and 87.7 µM, respectively.
Regarding `CC1=CCC[C@H]2[C@](C)(CC3=CC(=O)C(SCC(C)C)=CC3=O)[C@@H](C)CC[C@]12C`, the TGI in the assay with CCRF-CEM leukemia turned out to be 3.72 µM; with DU-145 prostate, 30.9 µM; in the assay on HCC-2998 colon it was 31.5 µM; in the assay with HOP-92 NSCLC, 17.9 µM; in the assay with IGROV1 ovarian, 22.9 µM; with KM12 colon, 28 µM. For the same compound, the TGI in the assay on LOX IMVI melanoma was 24.6 µM; in the assay on MDA-MB-435, 32.5 µM; in the assay with MOLT-4 leukemia it was 6.19 µM; with NCI/ADR-RES ovarian it was 38.8 µM; in the assay on PC-3 prostate, 30.9 µM; in the assay with SK-MEL-2 melanoma it was 31 µM. Further, the TGI stood at 32.5 µM in the assay on SK-MEL-28 melanoma, 59 µM in the assay with SR leukemia and 31.3 µM in the assay with TK-10 renal.
Turning to `O=[Se](O)O`, the TGI in the assay with CCRF-CEM leukemia is more than 100 µM; in the assay with DU-145 prostate, 10.8 µM; with HCC-2998 colon, more than 100 µM; in the assay with IGROV1 ovarian, 2.43 µM; in the assay on KM12 colon, more than 64.6 µM; in the assay with LOX IMVI melanoma it was more than 100 µM. Moreover, the TGI in the assay on MDA-MB-435 is more than 100 µM; in the assay on MOLT-4 leukemia, more than 100 µM; in the assay with NCI-H522 lung, 39 µM; in the assay with NCI/ADR-RES ovarian, more than 54.9 µM; with PC-3 prostate it was 7.63 µM; in the assay on SK-MEL-2 melanoma, more than 39.4 µM. Moreover, the TGI was 26.8 µM in the assay on SK-MEL-28 melanoma, more than 28.6 µM in the assay with SR leukemia and more than 100 µM in the assay on TK-10 renal.
Take `CC(C)(C)C1=C(Br)C(O)(C(C)(C)C)OP1(=O)c1ccccc1` (stereo not given): the TGI in the assay on CCRF-CEM leukemia, in the assay on DU-145 prostate, in the assay with HCC-2998 colon, with HOP-92 NSCLC, with IGROV1 ovarian and in the assay on KM12 colon was more than 100 µM each time. The TGI with LOX IMVI melanoma, in the assay with MDA-MB-435, in the assay with MOLT-4 leukemia, in the assay with NCI-H522 lung, in the assay with NCI/ADR-RES ovarian and in the assay on PC-3 prostate was more than 100 µM each time. For the same compound, the TGI with SK-MEL-2 melanoma, in the assay with SK-MEL-28 melanoma and in the assay with TK-10 renal was more than 100 µM each time.
In the case of `S=C1SC(=Nc2ccccc2)C(=Nc2ccccc2)N1c1ccc2ccccc2c1`, the TGI in the assay with CCRF-CEM leukemia, with DU-145 prostate, with HCC-2998 colon, in the assay on IGROV1 ovarian, in the assay on KM12 colon and in the assay on MDA-MB-435 was more than 100 µM in each case. Moreover, the TGI in the assay on NCI-H522 lung, in the assay on NCI/ADR-RES ovarian, in the assay on PC-3 prostate, in the assay on SK-MEL-2 melanoma, with SK-MEL-28 melanoma and with SR leukemia was more than 100 µM throughout.
Take `NC(=O)CN1C=CCC(C(N)=O)=C1`: the TGI in the assay with CCRF-CEM leukemia, with DU-145 prostate, with HCC-2998 colon, in the assay on HOP-92 NSCLC, in the assay on IGROV1 ovarian and in the assay on KM12 colon was more than 100 µM throughout. Moreover, the TGI in the assay with LOX IMVI melanoma, in the assay on MDA-MB-435, with MOLT-4 leukemia, in the assay on NCI-H522 lung, in the assay on NCI/ADR-RES ovarian and with PC-3 prostate was more than 100 µM each time. The same compound gave a TGI in the assay on SK-MEL-2 melanoma of more than 100 µM.
Take `O=c1[nH]c(=O)n(C2OC(CO)C(O)C2O)cc1OCCCc1ccccc1` (stereo not given): the TGI in the assay with CCRF-CEM leukemia, in the assay with DU-145 prostate, in the assay on HCC-2998 colon, in the assay on IGROV1 ovarian, in the assay with KM12 colon and in the assay with LOX IMVI melanoma was more than 100 µM throughout. Moreover, the TGI in the assay on MDA-MB-435, with MOLT-4 leukemia, in the assay on NCI/ADR-RES ovarian, with PC-3 prostate, in the assay on SK-MEL-2 melanoma and with SK-MEL-28 melanoma was more than 100 µM each time. The TGI in the assay with SR leukemia and in the assay with TK-10 renal was more than 100 µM each time.
For the compound `Cc1cc(-c2nc3cccc(O)c3s2)ccc1N`, the TGI is 65.2 µM in the assay with CCRF-CEM leukemia; more than 100 µM in the assay on DU-145 prostate; more than 100 µM in the assay on HCC-2998 colon; more than 100 µM in the assay with HOP-92 NSCLC; more than 100 µM in the assay with IGROV1 ovarian; 36.7 µM in the assay on KM12 colon. For the same compound, the TGI was more than 100 µM with LOX IMVI melanoma; 41.9 µM in the assay with MDA-MB-435; 78.4 µM in the assay on MOLT-4 leukemia; 55.9 µM in the assay with NCI/ADR-RES ovarian; 98.5 µM in the assay on PC-3 prostate; more than 100 µM with SK-MEL-2 melanoma. The TGI in the assay on SK-MEL-28 melanoma, in the assay with SR leukemia and with TK-10 renal was more than 100 µM each time.
In the case of `COc1ccc2cc(C(C)C(=O)N3C(=O)OCC3(C)C)ccc2c1` (stereo not given), the TGI in the assay with DU-145 prostate, with HCC-2998 colon, in the assay on HOP-92 NSCLC, in the assay on IGROV1 ovarian, in the assay with LOX IMVI melanoma and in the assay with MDA-MB-435 was more than 100 µM in each case. Also, the TGI with MOLT-4 leukemia, with NCI/ADR-RES ovarian, with PC-3 prostate, in the assay on SK-MEL-28 melanoma, in the assay with SR leukemia and with TK-10 renal was more than 100 µM each time.
With `COc1nc(C#CC2CCCCC2)nc(OC)n1`, the TGI in the assay with CCRF-CEM leukemia came out at 11.7 µM; in the assay with DU-145 prostate, 14.6 µM; with IGROV1 ovarian it was 14 µM; with KM12 colon, 17.9 µM; in the assay on LOX IMVI melanoma, 8.69 µM; with MDA-MB-435 it was 10.1 µM. The TGI is more than 100 µM in the assay on MOLT-4 leukemia; 6.33 µM in the assay with NCI-H522 lung; 4.59 µM in the assay with NCI/ADR-RES ovarian; 16.3 µM in the assay with PC-3 prostate; 13.1 µM in the assay with SK-MEL-2 melanoma; 32.8 µM in the assay with SK-MEL-28 melanoma. Moreover, the TGI in the assay on SR leukemia was more than 100 µM.
Take `Cc1nc(Nc2ccccc2Cl)sc1C(=O)CC(=O)C(N)=O`: the TGI in the assay with CCRF-CEM leukemia, in the assay with DU-145 prostate, in the assay with HCC-2998 colon, in the assay with HOP-92 NSCLC, in the assay on IGROV1 ovarian and in the assay with KM12 colon was more than 100 µM each time. The TGI is more than 100 µM in the assay on LOX IMVI melanoma; more than 100 µM with MDA-MB-435; more than 100 µM in the assay on MOLT-4 leukemia; 6.79 µM in the assay with NCI-H522 lung; more than 100 µM with NCI/ADR-RES ovarian; more than 100 µM with PC-3 prostate. The TGI in the assay on SK-MEL-2 melanoma and with TK-10 renal was more than 100 µM in each case.
